Columns and labels:
[1] = target: T1, binding between ARTS and p53 (Mus musculus, UniProt P02340); assay: Co-immuno-precipitation between ARTS and p53 in Sept4/ARTS KO MEFs; assay type: cell-based; settings: B3 for 24 hrs
T1 construct: expressed in transfected cells; host or cells: Sept4/ARTS KO MEFs (per the earlier reading)
Protocol: Cells were harvested and lysed with radioimmunoprecipitation assay (RIPA) buffer (Tris-HCl pH 7.5 50 mM, NaCl 150 mM, NP-40 (Igepal) 0.3%) containing protease inhibitor cocktail (Complete, Roche) and 100 μg/ml PMSF. Antibodies were used at 5 μg per […] protein and incubated overnight, rotating at 4° C. The next day, agarose beads conjugated to protein A/G (Santa Cruz Biotechnology) were added for 4 h with rotation at 4° C. Samples were centrifuged at 4° C. for 5 min and washed five times with RIPA buffer. Proteins were eluted from beads by 10 min of boiling in sample buffer and separated on 12% SDS-PAGE gel, followed by Western blot analysis.

HeLa cells = assay: Western blot of HeLa cells exposed to B3; assay type: cell-based; settings: 30 μM, 2-24 hrs
Protocol: (§1) The cells were lysed in WCE (whole-cell extract) buffer [25 mM Hepes, pH 7.7, 0.3M NaCl, 1.5 mM MgCl2, 0.2 mM EDTA, 0.1% Triton X-100, 100[μg/ml PMSF and protease inhibitor cocktail (Roche, 1:100 dilution)]. 100 μg of total cell protein, measured with the Bio-Rad Protein Assay kit, were separated by SDS-PAGE (12%) followed by transfer for 2 h on to a nitrocellulose membrane. The membrane was blocked with 5% (w/v) non-fat dried skimmed milk powder in PBS supplemented with 0.05% Tween20 (PBS-T) for 1 hour at room temperature (R.T). Membrane was then probed with primary antibody at 4° C. overnight. Next, the membrane was incubated with the appropriate HRP-conjugated secondary antibody, for 1 hour at R.T. and washed 15 min ×3 with PBS-T. WesternBright ECL (Advansta) was added to the membrane for 2 min and analyzed using ImageQuant LAS-4000 analyzer (GE Healthcare Life Sciences) & “ImageQuant LAS-4000” software (GE Healthcare Life Sciences). Densitometry analysis was performed using ImageQuant total lab 7 (GE Healthcare Life Sciences), image analysis software.

HCT116 WT cells = assay: Western blot analysis of HCT116 WT cells; assay type: cell-based
Protocol: Cells were lysed in whole-cell extract buffer [25 mM HEPES, pH 7.7, […], 1.5 mM MgCl2, 0.2 mM EDTA, 0.1% Triton X-100, 100 μg/ml phenylmethylsulfonyl fluoride (PMSF) and protease inhibitor cocktail (Roche, 1:100 dilution)] and placed on ice for 30 min (vortexing once after 15 min). After 30 minutes, the samples were centrifuged at 13,000×g for 10 minutes at 4° C. The supernatants containing total protein were measured for protein concentration using Bio-Rad Protein Assay Dye Reagent Concentrate Kit. 40 to […] was separated by sodium dodecyl sulfate-polyacrylamide gel electrophoresis (SDS-PAGE) (12% or 7.5%), followed by transfer to a nitrocellulose membrane. The membranes were blocked with 5% (w/v) non-fat dried skimmed milk powder in PBS supplemented with 0.05% Tween-20 (PBS-T) for 1 h at RT. Next, primary antibodies were added at 4° C. overnight or for 2 h at room temperature. Membranes were then incubated with secondary antibody for 1 h at RT and washed three times for 15 min each with PBS-T. Western Bright ECL (Advansta) was added to the membrane for 30-60 s and analyzed using Image Quant LAS-4000 (GE Healthcare Life Sciences) and Image Quant LAS-4000 software (GE Healthcare Life Sciences).

Jurkat cell lines = assay: PrestoBlue viability assay; assay type: cell-based; settings: 20 μM B3 vs 12.5 μM Etoposide, 24 h
[2] = target: T2, complex formation between XIAP and Bcl-2 (Homo sapiens, UniProt P10415+P98170); assay: Co-immunoprecipitation in HCT 116 XIAP KO cells transfected with GFP-XIAP and Flag-Bcl-2; assay type: cell-based; settings: 20 uM B3
T2 construct: expressed in transfected cells; host or cells: HCT 116 XIAP KO cells
Protocol: Protein extracts were prepared with lysis buffer containing 150 mM NaCl, 50 mM Tris-HCl (pH 8), 1% NP-40, 0.5% deoxycholate acid with protease inhibitors (mini complete, Roche). Protein levels were determined and equal amounts were used for each sample. Lysates were pre-cleared with […] mouse IgG (Sigma) coupled with protein A/G sepharose mix (Amersham Biosciences). Complexes were incubated overnight at 4° C., followed by low-speed centrifugation. Supernatants were immunoprecipitated using […] of monoclonal anti-Bcl-2 antibodies (BD) overnight. Protein A/G sepharose beads were added to immunoprecipitate complex for 4 hours, collected and washed four times with PBS and then responded and heated in Sample buffer ×2 for 10 minutes.

XIAP = XIAP (Homo sapiens, UniProt P98170); assay: Nano-DSF binding assay (Crelux); settings: binding curve, dose response
[3] = system: CCRF-CEM (acute lymphoblastic leukemia) cell line; assay: Western blot analysis of CCRF-CEM; assay type: cell-based; settings: B3 alone, 24 hrs
Protocol: as §1

PBMC = assay: Viability assay (SRB), normal cell control; assay type: cell-based, Human; settings: 72 hrs, 10 mM to 0.1 μM
Protocol: (§2) The assay was performed at six tenfold serial dilutions of the B3 compounds: 10 mM (stock), 1 mM, 100 μM, 10 μM, 1 μM and 0.1 μM. The screen was performed on 93 cancer cell lines and PBMC as normal cell control. The B3 compound was incubated with the cells for 72 hours. The following cancer cell lines were screened:
(§3) The Sulforhodamine B (SRB) assay was used as a screening method. Briefly, the method relies on the property of SRB, to bind stoichiometrically to proteins under mild acidic conditions and to be extracted under basic conditions. Thus, the amount of bound dye can be used as a proxy for cell mass, which can then be extrapolated to measure cell proliferation. The protocol can be divided into four main steps: preparation of treatment, incubation of cells with treatment of choice, cell fixation and SRB staining and absorbance measurement.

93 cancer cell lines = assay: Viability assay (SRB), cancer cell line screen; assay type: cell-based; settings: 72 hrs, 10 mM to 0.1 μM
Protocol: as §2, §3

A-375 cells = assay: Viability assay (SRB), cancer cell line screen; assay type: cell-based; settings: Homo sapiens; A-375, 72 hours incubation; read-out: GI50 score
Protocol: as §2, §3

T2 sequence (P98170 whole entry): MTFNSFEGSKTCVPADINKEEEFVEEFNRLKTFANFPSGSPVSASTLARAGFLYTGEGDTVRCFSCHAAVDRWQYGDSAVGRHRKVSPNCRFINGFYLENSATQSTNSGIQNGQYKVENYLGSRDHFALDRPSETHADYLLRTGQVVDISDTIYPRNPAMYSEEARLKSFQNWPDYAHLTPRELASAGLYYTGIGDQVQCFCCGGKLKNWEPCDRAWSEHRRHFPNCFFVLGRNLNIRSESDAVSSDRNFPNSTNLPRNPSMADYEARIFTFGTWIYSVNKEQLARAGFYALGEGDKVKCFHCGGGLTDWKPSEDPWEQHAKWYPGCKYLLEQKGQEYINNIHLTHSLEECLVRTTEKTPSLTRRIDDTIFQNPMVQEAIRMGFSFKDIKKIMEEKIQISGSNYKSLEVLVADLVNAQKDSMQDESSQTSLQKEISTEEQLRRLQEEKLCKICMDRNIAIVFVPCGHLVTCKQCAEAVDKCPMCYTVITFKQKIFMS
T2 sequence (P10415 whole entry): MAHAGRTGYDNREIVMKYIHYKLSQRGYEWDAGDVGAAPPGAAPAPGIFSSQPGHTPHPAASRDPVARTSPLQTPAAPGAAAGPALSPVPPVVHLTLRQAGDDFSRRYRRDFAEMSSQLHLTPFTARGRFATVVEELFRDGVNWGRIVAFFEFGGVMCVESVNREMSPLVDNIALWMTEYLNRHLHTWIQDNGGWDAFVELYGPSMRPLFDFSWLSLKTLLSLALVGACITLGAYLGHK
Chain of XIAP (P98170 whole entry): as the sequence (P98170 whole entry) above
T1 sequence (P02340 whole entry): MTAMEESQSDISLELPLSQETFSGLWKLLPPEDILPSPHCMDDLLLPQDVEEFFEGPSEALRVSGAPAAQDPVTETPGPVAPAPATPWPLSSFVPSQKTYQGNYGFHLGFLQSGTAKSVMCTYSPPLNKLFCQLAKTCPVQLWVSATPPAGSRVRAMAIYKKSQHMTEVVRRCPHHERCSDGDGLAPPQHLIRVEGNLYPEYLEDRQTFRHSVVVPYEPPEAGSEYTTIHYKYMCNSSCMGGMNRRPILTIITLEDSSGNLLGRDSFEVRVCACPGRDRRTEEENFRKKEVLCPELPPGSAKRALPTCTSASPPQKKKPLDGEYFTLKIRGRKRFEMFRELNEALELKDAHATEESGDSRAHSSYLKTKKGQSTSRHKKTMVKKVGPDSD

binding between ARTS and p53 [1]: reduces | complex formation between XIAP and Bcl-2 [2]: significantly increase | direct binding to XIAP (XIAP): binds with high affinity | GI50 (A-375 cells): 14.8 µM
Compound: Cn1ccnc1C(=O)c1ccc(NC(=O)C(=O)N[C@H](CO)Cc2ccccc2)cc1 [B3, (S)-N1-(1-hydroxy-3-phenylpropan-2-yl)-N2-(4-(1-methyl-1H-imidazole-2-carbonyl)phenyl)oxalamide]
anti-apoptotic markers (HeLa cells): reduction | XIAP levels (HCT116 WT cells; 20 uM, 24 hrs): decrease | cleavage of early apoptotic marker Caspase 9 (HCT116 WT cells; 20 uM, 24 hrs): increase | MDM2 levels (HCT116 WT cells; 10, 20, 30 μM B3, 24 hours): reduction | XIAP levels (HCT116 WT cells; 10, 20, 30 μM B3, 24 hours): reduction | cPARP or caspase3 (HCT116 WT cells; 10, 20, 30 μM B3, 24 hours): elevation | p53 levels (HCT116 WT cells; 10, 20, 30 μM B3, 24 hours): elevation | cell death compared with Etoposide (Jurkat cell lines): as efficient as the strong pro-apoptotic chemotherapeutic agent Etoposide | induction of apoptosis [3]: sufficient to induce apoptosis | sensitivity of normal cell control to B3 (PBMC): resistant | sensitivity of cancer cell lines to B3 (93 cancer cell lines): sensitive
